{"source": "patent US10227344B2", "about": "“CK2 inhibitors, compositions and methods thereof” (Polaris Pharmaceuticals, Inc., priority 2016, dated 2019)", "key": {"purified CK2α enzyme": {"biological_target": "purified CK2α enzyme (Homo sapiens, UniProt P68400)", "sequence (P68400 whole entry)": "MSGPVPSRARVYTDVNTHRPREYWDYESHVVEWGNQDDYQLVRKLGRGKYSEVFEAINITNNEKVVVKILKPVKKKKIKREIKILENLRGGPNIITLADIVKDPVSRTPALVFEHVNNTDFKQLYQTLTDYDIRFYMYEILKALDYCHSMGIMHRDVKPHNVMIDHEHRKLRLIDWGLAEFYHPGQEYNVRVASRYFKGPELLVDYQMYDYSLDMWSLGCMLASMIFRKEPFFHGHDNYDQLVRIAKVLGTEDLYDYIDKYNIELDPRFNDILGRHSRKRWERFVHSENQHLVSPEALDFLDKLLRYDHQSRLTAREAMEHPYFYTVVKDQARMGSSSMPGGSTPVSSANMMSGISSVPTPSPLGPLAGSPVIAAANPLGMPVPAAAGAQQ", "experiment": "CK2 Protein Kinase Inhibition Assay (coupled PK/LDH assay)", "type": "biochemical", "settings": "CK2 enzyme 25 nM, 100 μM ATP, 37° C., Morrison equation", "summary_of_the_method": "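Purified CK2α at 25 nM final, 1.5 mM peptide substrate, 100 μM ATP, pH 8.25 Tris buffer; compounds pre-incubated 10 min at 37° C. ADP coupled via PK/LDH to NADH loss at 340 nm over 30 min, 37° C. Ki from rate versus concentration by Morrison equation, triplicate points.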"}, "LnCap": {"system": "LnCap", "experiment": "Cancer cell panel, cell viability (resazurin): Prostate, LnCap", "type": "cell-based", "settings": "Homo sapiens, 72 hours, single agent, read-out: Example 3 IC50"}, "OVCAR-3": {"system": "OVCAR-3", "experiment": "Cancer cell panel, cell viability (resazurin): Ovarian, OVCAR-3", "type": "cell-based", "settings": "Homo sapiens; OVCAR-3 (Ovarian), 72 hours, single agent; read-out: Example 3 IC50", "protocol": "(§1) Cells were plated in 96-well plates and treated for 72 hours with a serially diluted CK2 inhibitor or anti-cancer drug or their combination. The suspension cell lines were treated right after plating, while the adherent cells were allowed to attach overnight prior to the start of the treatment.\n(§2) Cell viability was determined by adding resazurin to cell cultures and measuring fluorescence with a plate reader. Relative cell viability was calculated by dividing the cell viability signal from a test sample by that of a non-treated control. […] Bliss Independence and Highest Single Agent models were used to determine if there is synergy, additivity or antagonism between the CK2 inhibitor and an anti-cancer drug."}, "Caov-3": {"system": "Caov-3", "experiment": "Cancer cell panel, cell viability (resazurin): Ovarian, Caov-3", "type": "cell-based", "settings": "Homo sapiens; Caov-3 (Ovarian), 72 hours, single agent; read-out: Example 3 IC50"}, "BxPC3": {"system": "BxPC3", "experiment": "Cancer cell panel, cell viability (resazurin): Pancreatic, BxPC3", "type": "cell-based", "settings": "Homo sapiens, BXPC-3, 72 hours, single agent, read-out: Example 3 IC50"}, "HCT116": {"system": "HCT116", "experiment": "Cancer cell panel, cell viability (resazurin): Colon, HCT116", "type": "cell-based", "settings": "Homo sapiens, HCT-116, 72 hours, single agent, read-out: Example 3 IC50"}, "HT29": {"system": "HT29", "experiment": "Cancer cell panel, cell viability (resazurin): Colon, HT29", "type": "cell-based", "settings": "Homo sapiens, HT-29, 72 hours, single agent, read-out: Example 3 IC50"}, "LoVo": {"system": "LoVo", "experiment": "Cancer cell panel, cell viability (resazurin): Colon, LoVo", "type": "cell-based", "settings": "Homo sapiens, 72 hours, single agent, read-out: Example 3 IC50"}, "H460": {"system": "H460", "experiment": "Cancer cell panel, cell viability (resazurin): NSCLC, H460", "type": "cell-based", "settings": "Homo sapiens, NCI-H460, 72 hours, single agent, read-out: Example 3 IC50"}, "MDA-MB-453": {"system": "MDA-MB-453", "experiment": "Cancer cell panel, cell viability (resazurin): Breast, MDA-MB-453", "type": "cell-based", "settings": "Homo sapiens; MDA-MB-453 (Breast), 72 hours, single agent; read-out: Example 3 IC50"}, "BT-20": {"system": "BT-20", "experiment": "Cancer cell panel, cell viability (resazurin): Breast, BT-20", "type": "cell-based", "settings": "Homo sapiens; BT-20 (Breast), 72 hours, single agent; read-out: Example 3 IC50"}, "A375": {"system": "A375", "experiment": "Cancer cell panel, cell viability (resazurin): Melanoma, A375", "type": "cell-based", "settings": "Homo sapiens, A-375, 72 hours, single agent, read-out: Example 3 IC50"}, "RPMI8226": {"system": "RPMI8226", "experiment": "Cancer cell panel, cell viability (resazurin): multiple myeloma, RPMI8226", "type": "cell-based", "settings": "Homo sapiens, RPMI-8226, 72 hours, single agent, read-out: Example 3 IC50", "protocol": "as §1, §2"}, "K562": {"system": "K562", "experiment": "Cancer cell panel, cell viability (resazurin): Leukemia, K562", "type": "cell-based", "settings": "Homo sapiens, 72 hours, single agent, read-out: Example 3 IC50", "protocol": "as §1, §2"}, "HL60": {"system": "HL60", "experiment": "Cancer cell panel, cell viability (resazurin): Leukemia, HL60", "type": "cell-based", "settings": "Homo sapiens, HL-60, 72 hours, single agent, read-out: Example 3 IC50", "protocol": "as §1, §2"}}, "data": [{"smiles": "C[S@+]([O-])Cc1cc(Nc2cc(NC3CC3)n3ncc(C#N)c3n2)ccc1Cl", "note": "[Example 3, (S)(+)-5-((4-Chloro-3-((methylsulfinyl)methyl)phenyl)amino)-7-(cyclopropylamino)pyrazolo[1,5-a]pyrimidine-3-carbonitrile]", "values": [{"measurement": "Ki", "setting": "purified CK2α enzyme", "value": "< 2.5", "unit": "nM"}, {"measurement": "IC50", "setting": "LnCap", "value": 420, "unit": "nM"}, {"measurement": "IC50", "setting": "OVCAR-3", "value": 42, "unit": "nM"}, {"measurement": "IC50", "setting": "Caov-3", "value": 50, "unit": "nM"}, {"measurement": "IC50", "setting": "BxPC3", "value": 3.6, "unit": "µM"}, {"measurement": "IC50", "setting": "HCT116", "value": 356, "unit": "nM"}, {"measurement": "IC50", "setting": "HT29", "value": 197, "unit": "nM"}, {"measurement": "IC50", "setting": "LoVo", "value": 170, "unit": "nM"}, {"measurement": "IC50", "setting": "H460", "value": 350, "unit": "nM"}, {"measurement": "IC50", "setting": "MDA-MB-453", "value": 148, "unit": "nM"}, {"measurement": "IC50", "setting": "BT-20", "value": 98, "unit": "nM"}, {"measurement": "IC50", "setting": "A375", "value": 218, "unit": "nM"}, {"measurement": "IC50", "setting": "RPMI8226", "value": 233, "unit": "nM"}, {"measurement": "IC50", "setting": "K562", "value": 463, "unit": "nM"}, {"measurement": "IC50", "setting": "HL60", "value": 261, "unit": "nM"}]}]}
